Results on nine compounds are retold here after patent US10294202B2, “Pyrrolidinones as herbicides” (FMC Corporation, priority 2013, dated 2019).

One experiment concerns sprangletop, Brdd. Briefly: Test F flood (paddy) test. The format is in vivo, Leptochloa fascicularis. The following applies: 21 d, scale 0-100. The source says: Three plastic pots (ca. 16-cm diameter) per rate were partially filled with sterilized Tama silt loam soil comprising a 35:50:15 ratio of sand, silt and clay and 2.6% organic matter. Separate plantings for each of the three pots were as follows. Seeds from the U.S. of monochoria (Monochoria vaginalis), sedge, umbrella (small-flower umbrella sedge, Cyperus difformis), bulrush, […] bulrush, Scirpus juncoides), and […] (purple […] coccinea), were planted into one 16-cm pot for each rate. Seeds from the U.S. of flatsedge, rice (rice flatsedge, Cyperus iria), sprangletop, Brdd. (bearded sprangletop, Leptochloa fascicularis), one stand of 9 or 10 water seeded rice seedlings (Rice, W.S. Jap, Oryza sativa cv. 'Japonica-[…]' or Rice, W.S. Ind, 'Indica'), and two stands of 3 or 4 seedlings of rice, transplanted (transplanted rice, Oryza sativa cv. 'Japonica-[…]') were planted into one 16-cm pot for each rate. Seeds from the U.S. of barnyardgrass (Echinochloa crus-galli), […] (common […], Alisma plantago-aquatica), and watergrass, late (late watergrass, Echinochloa oryzicola) were planted into one 16-cm pot for each rate. Plantings were sequential so that crop and weed species were at the 2.0 to 2.5-leaf stage at time of treatment. Potted plants were grown in a greenhouse with day/night temperature settings of 30/27° C., and supplemental balanced lighting was provided to maintain a 16-h photoperiod. Test pots were maintained in the greenhouse until test completion. At time of treatment, test pots were flooded to 3 cm above the soil surface, treated by application of test compounds directly to the paddy water, and then maintained at that water depth for the duration of the test. Effects of treatments on rice and weeds were visually evaluated by comparison to untreated controls after 21 d. Plant response ratings, summarized in Table F, are based on a scale of 0 to 100 where 0 is no effect and 100 is complete control. A dash (-) response means no test result.

The test system of another experiment is barley, winter. Briefly: Test D pre-/postemergence herbicide test. The format is in vivo, Hordeum vulgare. To be noted: for Plant response rating: Barley, Winter, scale 0 to 100; for Plant response rating, Barley, Winter: scale 0 to 100 (0 no effect, 100 complete control). The text has this: (§1) Seeds of plant species selected from bluegrass (annual bluegrass, Poa annua), blackgrass (Alopecurus myosuroides), canarygrass (littleseed canarygrass, Phalaris minor), chickweed (common chickweed, Stellaria media), galium (catchweed bedstraw, Galium aparine), bromegrass, downy (downy bromegrass, Bromus tectorum), field poppy (Papaver rhoeas), field violet (Viola arvensis), foxtail, green (green foxtail, Setaria viridis), deadnettle (henbit deadnettle, Lamium amplexicaule), ryegrass, Italian (Italian ryegrass, Lolium multiflorum), kochia (Kochia scoparia), lambsquarters (Chenopodium album), oilseed rape (Brassica napus), pigweed (Amaranthus retroflexus), chamomile (scentless chamomile, Matricaria inodora), Russian thistle (Salsola kali), speedwell (bird's-eye speedwell, Veronica persica), barley, spring (spring barley, Hordeum vulgare), wheat, spring (spring wheat, Triticum aestivum), buckwheat, wild (wild buckwheat, Polygonum convolvulus), mustard, wild (wild mustard, Sinapis arvensis), oat, wild (wild oat, Avena fatua), radish, wild (wild radish, Raphanus raphanistrum), […]), barley, winter (winter barley, Hordeum vulgare), and wheat, winter (winter wheat, Triticum aestivum) were planted into a silt loam soil and treated preemergence with test chemicals formulated in a non-phytotoxic solvent mixture which included a surfactant. At the same time, these species were planted in pots containing Redi-Earth® planting medium (Scotts Company, 14111 Scottslawn Road, Marysville, Ohio 43041) comprising spaghnum peat moss, vermiculite, wetting agent and starter nutrients and treated with postemergence applications of the test chemicals formulated in the same manner. Plants ranged in height from 2 to 18 cm (1- to 4-leaf stage). Treated plants and controls were maintained in a controlled growth environment for 7 to 21 days after which time all species were compared to controls and visually evaluated. Plant response ratings, summarized in Table D, are based on a scale of 0 to 100 where 0 is no effect and 100 is complete control. A dash (-) response means no test result.

The test system of a further experiment is barley, spring. Briefly: Test D pre-/postemergence herbicide test. It is filed as in vivo, Hordeum vulgare. The following applies: for Plant response rating: Barley, Spring, scale 0 to 100; for Plant response rating, Barley, Spring: scale 0 to 100 (0 no effect, 100 complete control).
Excerpt: as §1

A further experiment concerns ragweed. Briefly: Test E preemergence herbicide test. The format is in vivo, Ambrosia elatior. Further details: key: 0 = no effect, 100 = complete control. The source says: (§2) Seeds of plant species selected from corn (Zea mays), soybean (Glycine max), velvetleaf (Abutilon theophrasti), lambsquarters (Chenopodium album), wild poinsettia (Euphorbia heterophylla), pigweed, palmer (palmer pigweed, Amaranthus palmeri), waterhemp (common waterhemp, Amaranthus rudis), surinam grass (Brachiaria decumbens), crabgrass, large (large crabgrass, Digitaria sanguinalis), crabgrass, Brazil (Brazilian crabgrass, Digitaria horizontalis), panicum, fall (fall panicum, Panicum dichotomiflorum), foxtail, giant (giant foxtail, Setaria faberii), foxtail, green (green foxtail, Setaria viridis), goosegrass (Eleusine indica), johnsongrass (Sorghum halepense), ragweed (common ragweed, Ambrosia elatior), barnyardgrass (Echinochloa crus-galli), sandbur (southern sandbur, Cenchrus echinatus), arrowleaf […] rhombifolia), ryegrass, Italian (Italian ryegrass, Lolium multiflorum), dayflower, VA (Virginia dayflower, Commelina virginica), field bindweed (Convolvulus arvensis), morningglory (Ipomoea coccinea), nightshade (eastern black nightshade, Solanum ptycanthum), kochia (Kochia scoparia), nutsedge, yellow (yellow nutsedge, Cyperus esculentus), cocklebur (common cocklebur, Xanthium strumarium), smartweed (ladysthumb smartweed, Polygonum Persicaria) and beggarticks (hairy beggarticks, Bidens pilosa), were planted into a silt loam soil and treated preemergence with test chemicals formulated in a non-phytotoxic solvent mixture which included a surfactant. Treated plants and controls were maintained in a greenhouse for 21 days, after which time all species were compared to controls and visually evaluated. Plant response ratings, summarized in Table E, are based on a scale of 0 to 100 where 0 is no effect and 100 is complete control. A dash (-) response means no test result.

In another experiment the test system is soybean. Briefly: Test E preemergence herbicide test. It is filed as in vivo, Glycine max. Further details: key: 0 = no effect, 100 = complete control.
Excerpt: as §2

As for `O=C1NCC(c2cccc(C(F)(F)F)c2)C1C(=O)Nc1ccccc1F` (racemic) [Compound 3], the “Plant response rating, Sprangletop, Brdd.” value is on record as 80 with sprangletop, Brdd. (250 g ai/ha) and 85 in the experiment on sprangletop, Brdd. (500 g ai/ha).

Regarding `O=C1NCC(c2ccc(F)c(F)c2)C1C(=O)Nc1cccc(F)c1` (racemic) [Compound 12], the Plant response rating with barley, winter (Postemergence, 16 g ai/ha) stood at 0; with barley, winter (Postemergence, 31 g ai/ha), 0; with barley, winter (Postemergence, 62 g ai/ha) it was 0; with barley, winter (Postemergence, 125 g ai/ha), 0; with barley, winter (Postemergence, 250 g ai/ha) it was 0; in the experiment on barley, winter (Preemergence, 125 g ai/ha), 0. The Plant response rating in the experiment on barley, winter (Preemergence, 250 g ai/ha) amounted to 0; in the experiment with barley, spring (Postemergence, 16 g ai/ha) it was 0; in the experiment with barley, spring (Postemergence, 31 g ai/ha) it was 0; in the experiment with barley, spring (Postemergence, 62 g ai/ha) it was 5; with barley, spring (Postemergence, 125 g ai/ha), 5; in the experiment with barley, spring (Postemergence, 250 g ai/ha), 5. The Plant response rating in the experiment on barley, spring (Preemergence, 125 g ai/ha) came out at 0; in the experiment with barley, spring (Preemergence, 250 g ai/ha) it was 0. Besides, the “Plant response rating, Barley, Winter” value in the experiment with barley, winter (Preemergence, 31 g ai/ha) came out at 0; in the experiment with barley, winter (Preemergence, 62 g ai/ha) it was 0; with barley, winter (Preemergence, 16 g ai/ha), 0. The “Plant response rating, Barley, Spring” value is 0 in the experiment with barley, spring (Preemergence, 31 g ai/ha); 0 in the experiment with barley, spring (Preemergence, 62 g ai/ha); 0 in the experiment on barley, spring (Preemergence, 16 g ai/ha).

In the case of `O=C1NCC(c2ccc(F)cc2)C1C(=O)Nc1ccccc1F` (racemic) [Compound 16], the “Plant response rating, Ragweed” value in the experiment with ragweed (62 g ai/ha), in the experiment with ragweed (125 g ai/ha) and with ragweed (250 g ai/ha) was 0 each time. For the same compound, the “Plant response rating, Soybean” value in the experiment with soybean (16 g ai/ha), in the experiment with soybean (31 g ai/ha), with soybean (62 g ai/ha), in the experiment with soybean (125 g ai/ha) and in the experiment on soybean (250 g ai/ha) was 0 each time.

Consider `O=C1NCC(c2cc(F)c(F)c(F)c2)C1C(=O)Nc1ccccc1C(F)(F)F` (racemic) [Compound 33], for which the Plant response rating in the experiment on barley, winter (Postemergence, 16 g ai/ha) amounted to 0; with barley, winter (Postemergence, 31 g ai/ha), 0; in the experiment with barley, winter (Postemergence, 62 g ai/ha), 0; in the experiment with barley, winter (Postemergence, 125 g ai/ha), 0; in the experiment on barley, winter (Postemergence, 250 g ai/ha), 0; in the experiment on barley, spring (Postemergence, 16 g ai/ha), 0. For the same compound, the Plant response rating in the experiment with barley, spring (Postemergence, 31 g ai/ha) is given as 0; with barley, spring (Postemergence, 62 g ai/ha), 0; in the experiment on barley, spring (Postemergence, 125 g ai/ha) it was 0; in the experiment on barley, spring (Postemergence, 250 g ai/ha), 0.

For the compound `O=C1NCC(c2cc(F)c(F)c(F)c2)C1C(=O)Nc1ccccc1F` (racemic) [Compound 34], the Plant response rating stood at 0 in the experiment with barley, winter (Postemergence, 16 g ai/ha); 0 with barley, winter (Postemergence, 31 g ai/ha); 0 with barley, winter (Postemergence, 62 g ai/ha); 0 with barley, winter (Postemergence, 125 g ai/ha); 0 in the experiment with barley, winter (Postemergence, 250 g ai/ha); 0 in the experiment with barley, spring (Postemergence, 16 g ai/ha). The Plant response rating was found to be 0 with barley, spring (Postemergence, 31 g ai/ha); 0 with barley, spring (Postemergence, 62 g ai/ha); 0 in the experiment on barley, spring (Postemergence, 125 g ai/ha); 0 in the experiment with barley, spring (Postemergence, 250 g ai/ha).

With `O=C1NCC(c2cccc(C(F)(F)F)c2)C1C(=O)Nc1ccc(F)cc1F` (racemic) [Compound 207], the “Plant response rating, Barley, Winter” value was 5 with barley, winter (Preemergence, 31 g ai/ha); 10 in the experiment on barley, winter (Preemergence, 62 g ai/ha); 25 with barley, winter (Preemergence, 125 g ai/ha). The Plant response rating in the experiment on barley, winter (Preemergence, 250 g ai/ha) is listed as 45; in the experiment on barley, spring (Preemergence, 250 g ai/ha), 25. Also, the “Plant response rating, Barley, Spring” value with barley, spring (Preemergence, 31 g ai/ha) came to 0; in the experiment on barley, spring (Preemergence, 62 g ai/ha), 5; in the experiment on barley, spring (Preemergence, 125 g ai/ha), 20. The “Plant response rating, Sprangletop, Brdd.” value is 100 in the experiment on sprangletop, Brdd. (125 g ai/ha); 100 in the experiment with sprangletop, Brdd. (250 g ai/ha); 100 with sprangletop, Brdd. (500 g ai/ha).

Regarding `O=C1NCC(c2ccc(C(F)(F)F)c(F)c2)C1C(=O)Nc1cccc(F)c1F` (racemic) [Compound 247], the “Plant response rating, Sprangletop, Brdd.” value is recorded as 90 with sprangletop, Brdd. (125 g ai/ha); 95 in the experiment with sprangletop, Brdd. (250 g ai/ha); 98 in the experiment on sprangletop, Brdd. (500 g ai/ha); 98 in the experiment on sprangletop, Brdd. (1000 g ai/ha); 98 in the experiment on sprangletop, Brdd. (2000 g ai/ha).

For `O=C1NCC(c2cccc(C(F)(F)F)c2)C1C(=O)Nc1cccc(F)c1F` (stereo not drawn) [Compound 241], the “Plant response rating, Barley, Winter” value amounted to 10 in the experiment on barley, winter (Preemergence, 31 g ai/ha); 10 in the experiment on barley, winter (Preemergence, 62 g ai/ha); 30 with barley, winter (Preemergence, 125 g ai/ha). The Plant response rating in the experiment on barley, winter (Preemergence, 250 g ai/ha) was 65; in the experiment with barley, spring (Preemergence, 250 g ai/ha) it was 35. Also, the “Plant response rating, Barley, Spring” value in the experiment on barley, spring (Preemergence, 31 g ai/ha) came out at 0; in the experiment on barley, spring (Preemergence, 62 g ai/ha), 10; with barley, spring (Preemergence, 125 g ai/ha), 20.

On to `CN1CC(c2ccc(F)cc2)C(C(=O)Nc2cccc(F)c2F)C1=O` (stereo not drawn) [Compound 271], for which the “Plant response rating, Sprangletop, Brdd.” value with sprangletop, Brdd. (64 g ai/ha) amounted to 20; in the experiment with sprangletop, Brdd. (125 g ai/ha), 30; with sprangletop, Brdd. (250 g ai/ha), 80; in the experiment with sprangletop, Brdd. (500 g ai/ha), 95.
